# Residues, ends and D or L forms follow the SMILES beside them.
# Tests used:
# [1] = biological target: T1, 14-3-3 protein beta/alpha (Homo sapiens, UniProt P31946); assay: Binding affinity to GST-tagged 125I-labelled 14-3-3beta (unknown origin) expressed in Escherichia coli by solid phase assay
# T1 sequence (P31946 whole entry): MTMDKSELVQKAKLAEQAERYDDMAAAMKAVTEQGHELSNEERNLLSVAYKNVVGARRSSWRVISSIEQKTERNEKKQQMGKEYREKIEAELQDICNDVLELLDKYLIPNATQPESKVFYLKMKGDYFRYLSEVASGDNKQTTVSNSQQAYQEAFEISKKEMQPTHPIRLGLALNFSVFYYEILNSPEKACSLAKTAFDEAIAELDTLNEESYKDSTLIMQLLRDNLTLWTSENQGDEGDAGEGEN
# 14-3-3 protein theta = biological target: T2, 14-3-3 protein theta (Homo sapiens, UniProt P27348); assay: Binding affinity to GST-tagged 125I-labelled full length human 14-3-3tau expressed in Escherichia coli by solid phase assay
# T2 sequence (P27348 whole entry): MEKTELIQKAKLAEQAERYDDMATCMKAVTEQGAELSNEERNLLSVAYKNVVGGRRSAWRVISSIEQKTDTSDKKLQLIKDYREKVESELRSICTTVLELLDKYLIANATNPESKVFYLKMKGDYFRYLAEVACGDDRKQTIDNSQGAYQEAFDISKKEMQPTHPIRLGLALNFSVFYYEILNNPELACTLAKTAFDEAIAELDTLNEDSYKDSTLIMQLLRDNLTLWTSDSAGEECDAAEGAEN
# 14-3-3 protein eta = biological target: T3, 14-3-3 protein eta (Homo sapiens, UniProt Q04917); assay: Binding affinity to GST-tagged 125I-labelled 14-3-3eta (unknown origin) expressed in Escherichia coli by solid phase assay
# T3 sequence (Q04917 whole entry): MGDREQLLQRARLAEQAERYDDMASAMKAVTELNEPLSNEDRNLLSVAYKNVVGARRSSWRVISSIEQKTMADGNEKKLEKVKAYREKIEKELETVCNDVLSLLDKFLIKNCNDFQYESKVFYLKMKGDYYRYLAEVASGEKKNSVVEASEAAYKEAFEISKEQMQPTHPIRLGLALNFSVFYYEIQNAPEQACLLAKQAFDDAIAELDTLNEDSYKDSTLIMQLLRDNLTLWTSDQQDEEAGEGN
# 14-3-3 protein sigma = biological target: T4, 14-3-3 protein sigma (Homo sapiens, UniProt P31947); assay: Inhibition of 14-3-3sigma (unknown origin) assessed as reduction in 14-3-3sigma- mediated increase in MMP1 mRNA by cell based assay
# T4 sequence (P31947 whole entry): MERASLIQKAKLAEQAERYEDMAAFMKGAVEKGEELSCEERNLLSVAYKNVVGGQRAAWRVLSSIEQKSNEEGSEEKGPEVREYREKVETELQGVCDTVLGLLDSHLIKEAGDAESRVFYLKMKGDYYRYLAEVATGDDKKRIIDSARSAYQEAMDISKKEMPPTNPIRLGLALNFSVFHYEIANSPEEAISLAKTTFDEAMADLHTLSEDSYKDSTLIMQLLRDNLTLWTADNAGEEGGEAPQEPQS
# [2] = biological target: Serine/threonine-protein kinase PLK1 (Homo sapiens, UniProt P53350); assay: Inhibition of human Plk1 PBD (326 to 603 residues) using 5-carboxyfluorescein-GPMQSpTPLNG-OH as substrate incubated for 1 hr prior to addition of substrate by fluorescence polarization assay
# Serine/threonine-protein kinase PLK1, sequence (P53350 whole entry, the tested form may be a part): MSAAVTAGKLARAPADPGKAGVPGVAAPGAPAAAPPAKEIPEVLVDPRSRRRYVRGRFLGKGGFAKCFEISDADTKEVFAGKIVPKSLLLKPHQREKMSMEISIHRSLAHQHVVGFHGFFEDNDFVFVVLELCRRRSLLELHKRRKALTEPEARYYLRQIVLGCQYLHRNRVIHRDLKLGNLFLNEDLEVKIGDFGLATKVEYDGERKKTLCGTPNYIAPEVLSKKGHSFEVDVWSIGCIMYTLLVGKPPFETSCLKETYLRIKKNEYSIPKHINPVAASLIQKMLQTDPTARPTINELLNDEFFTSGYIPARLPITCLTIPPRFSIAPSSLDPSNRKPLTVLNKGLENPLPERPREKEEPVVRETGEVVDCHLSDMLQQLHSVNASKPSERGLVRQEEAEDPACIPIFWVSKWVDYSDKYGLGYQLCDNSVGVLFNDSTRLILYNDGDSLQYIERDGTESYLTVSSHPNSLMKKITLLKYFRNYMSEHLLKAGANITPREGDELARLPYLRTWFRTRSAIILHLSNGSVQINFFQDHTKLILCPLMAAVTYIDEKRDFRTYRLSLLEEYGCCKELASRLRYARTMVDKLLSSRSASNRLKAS
# [3] = biological target: Serine/threonine-protein kinase PLK2 (Homo sapiens, UniProt Q9NYY3); assay: Inhibition of human Plk2 PBD (355 to 685 residues) using 5-carboxyfluorescein-GPMQTSpTPKNG-OH as substrate incubated for 1 hr prior to addition of substrate by fluorescence polarization assay
# Serine/threonine-protein kinase PLK2, sequence (Q9NYY3 whole entry, the tested form may be a part): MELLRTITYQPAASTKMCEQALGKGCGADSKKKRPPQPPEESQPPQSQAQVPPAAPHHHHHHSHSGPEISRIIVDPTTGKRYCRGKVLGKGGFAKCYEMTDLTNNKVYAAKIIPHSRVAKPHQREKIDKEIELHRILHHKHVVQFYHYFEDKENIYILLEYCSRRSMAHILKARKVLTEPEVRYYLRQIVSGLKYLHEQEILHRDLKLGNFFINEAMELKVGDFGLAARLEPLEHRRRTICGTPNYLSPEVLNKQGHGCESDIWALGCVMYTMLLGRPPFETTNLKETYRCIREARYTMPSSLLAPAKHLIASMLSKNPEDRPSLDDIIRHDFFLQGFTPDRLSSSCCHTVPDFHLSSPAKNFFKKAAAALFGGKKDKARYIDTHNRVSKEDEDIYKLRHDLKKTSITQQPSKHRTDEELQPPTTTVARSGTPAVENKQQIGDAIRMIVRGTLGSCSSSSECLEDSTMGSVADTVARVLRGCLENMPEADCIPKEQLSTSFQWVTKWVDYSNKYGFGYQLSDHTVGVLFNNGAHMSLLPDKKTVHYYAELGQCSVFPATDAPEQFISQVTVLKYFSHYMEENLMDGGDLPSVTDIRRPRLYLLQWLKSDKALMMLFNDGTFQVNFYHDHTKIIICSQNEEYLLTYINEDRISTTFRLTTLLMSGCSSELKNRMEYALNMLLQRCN
# [4] = biological target: Serine/threonine-protein kinase PLK3 (Homo sapiens, UniProt Q9H4B4); assay: Inhibition of human Plk3 PBD (335 to 646 residues) using 5-carboxyfluorescein-GPLATSpTPKNG-OH as substrate incubated for 1 hr prior to addition of substrate by fluorescence polarization assay
# Serine/threonine-protein kinase PLK3, sequence (Q9H4B4 whole entry, the tested form may be a part): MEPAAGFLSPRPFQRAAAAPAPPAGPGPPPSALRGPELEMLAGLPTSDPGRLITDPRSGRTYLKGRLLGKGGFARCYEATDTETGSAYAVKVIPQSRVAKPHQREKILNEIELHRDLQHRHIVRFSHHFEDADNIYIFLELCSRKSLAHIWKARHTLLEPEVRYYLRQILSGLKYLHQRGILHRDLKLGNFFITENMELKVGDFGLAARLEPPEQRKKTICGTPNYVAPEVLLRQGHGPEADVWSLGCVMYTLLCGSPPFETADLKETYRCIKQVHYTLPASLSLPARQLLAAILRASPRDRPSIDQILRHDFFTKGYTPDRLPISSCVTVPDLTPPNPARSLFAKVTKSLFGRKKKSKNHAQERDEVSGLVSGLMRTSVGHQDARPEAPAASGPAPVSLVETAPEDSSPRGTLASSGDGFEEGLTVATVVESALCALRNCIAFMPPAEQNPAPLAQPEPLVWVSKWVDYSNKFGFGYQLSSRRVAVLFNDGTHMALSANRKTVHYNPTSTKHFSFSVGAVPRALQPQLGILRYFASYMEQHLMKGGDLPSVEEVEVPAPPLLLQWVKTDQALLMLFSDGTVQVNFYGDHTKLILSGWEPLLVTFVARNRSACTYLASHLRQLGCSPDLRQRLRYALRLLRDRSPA
# [5] = biological target: Serine/threonine-protein kinase Chk2 (Homo sapiens) (UniProt O96017); assay: Inhibition of Chk2 FHA (1 to 225 residues) (unknown origin) using 5-carboxyfluorescein-GHFDpTYLI-RR-OH as substrate at 40 uM incubated for 1 hr prior to addition of substrate by fluorescence polarization assay
# Serine/threonine-protein kinase Chk2 (Homo sapiens), sequence (O96017 whole entry, the tested form may be a part): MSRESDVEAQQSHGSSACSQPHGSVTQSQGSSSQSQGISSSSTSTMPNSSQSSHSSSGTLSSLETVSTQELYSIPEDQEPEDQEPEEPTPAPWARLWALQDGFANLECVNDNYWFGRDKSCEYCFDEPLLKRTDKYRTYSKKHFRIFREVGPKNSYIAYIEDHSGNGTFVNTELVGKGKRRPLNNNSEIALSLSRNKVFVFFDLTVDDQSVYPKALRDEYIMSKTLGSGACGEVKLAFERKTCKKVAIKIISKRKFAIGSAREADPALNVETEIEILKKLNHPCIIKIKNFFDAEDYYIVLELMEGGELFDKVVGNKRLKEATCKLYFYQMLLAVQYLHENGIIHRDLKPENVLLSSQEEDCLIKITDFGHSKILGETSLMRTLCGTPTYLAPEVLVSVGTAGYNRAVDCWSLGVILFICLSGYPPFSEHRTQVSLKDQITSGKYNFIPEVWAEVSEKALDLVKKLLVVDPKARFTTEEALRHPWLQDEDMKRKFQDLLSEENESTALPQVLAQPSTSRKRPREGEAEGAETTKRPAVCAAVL
# [6] = biological target: Peptidyl-prolyl cis-trans isomerase NIMA-interacting 1 (Homo sapiens) (UniProt Q13526); assay: Inhibition of Pin1 (1 to 162 residues) (unknown origin) using 5-carboxyfluorescein-GHFDpTYLI-RR-OH as substrate at 40 uM incubated for 1 hr prior to addition of substrate by fluorescence polarization assay
# Peptidyl-prolyl cis-trans isomerase NIMA-interacting 1 (Homo sapiens), sequence (Q13526 whole entry, the tested form may be a part): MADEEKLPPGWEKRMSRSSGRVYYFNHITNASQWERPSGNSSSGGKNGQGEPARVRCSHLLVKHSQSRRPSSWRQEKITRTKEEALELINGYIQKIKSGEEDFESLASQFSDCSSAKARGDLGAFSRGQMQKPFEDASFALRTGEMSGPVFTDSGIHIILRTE
# [7] = biological target: T5, 14-3-3 protein sigma (Homo sapiens) (UniProt P31947); assay: Induction of human 14-3-3sigma binding to TASK-3 using FAM-370RRK-pS-V374-COOH by fluorescence polarization assay relative to control
# T5 sequence (whole entry): T4 sequence (P31947 whole entry)
smiles,measurement,setting,value
CSCC[C@H](NC(=O)[C@H](CC(N)=O)NC(=O)[C@H](C)NC(=O)[C@H](CCC(=O)O)NC(=O)[C@H](CC(C)C)NC(=O)[C@H](CC(=O)O)NC(=O)[C@H](CC(C)C)NC(=O)[C@H](Cc1c[nH]c2ccccc12)NC(=O)[C@H](CO)NC(=O)[C@H](CC(C)C)NC(=O)[C@H](CC(=O)O)NC(=O)[C@H](CCCNC(=N)N)NC(=O)[C@@H]1CCCN1C(=O)[C@@H](NC(=O)[C@H](CS)NC(=O)[C@H](Cc1cnc[nH]1)NC(=O)[C@@H]1CCCN1)C(C)C)C(=O)N[C@@H](CS)C(=O)N[C@@H](CC(C)C)C(=O)N1CCC[C@H]1C(=O)O (H-PHCVPRDLSWLDLEANMCLP-OH),Kd,[1],70 nM
same,Kd,14-3-3 protein theta,70 nM
same,Kd,14-3-3 protein eta,70 nM
O=C(COc1ccccc1P(=O)(O)O)Nc1cccc(Cl)c1Cl,IC50,14-3-3 protein sigma,5000 nM
COc1ccc(Br)cc1/C=c1\sc2nc(=O)c(C)nn2c1=O,IC50,[2],3200 nM
same,IC50,[3],1700 nM
same,IC50,[4],3000 nM
same,inhibition,[5],35%
same,inhibition,[6],32%
COC[C@H]1CC[C@@H]2/C1=C\[C@]1(C)C(=C(C(C)C)[C@@H]3CCO[C@@H]31)[C@@H](O[C@H]1O[C@@H]3COC(C)(C)O[C@H]3[C@H](O)[C@H]1O)[C@H](O)[C@@H]2C,fold change (FC),[7],19

# From ChEMBL document CHEMBL3813646, “Small molecules that target phosphorylation dependent protein-protein interaction” (Bioorg Med Chem, 2016)
